The values that follow come from ChEMBL document CHEMBL5465560, “Selectivity Literature for EUbOPEN Chemogenomic Library” (2024).

Test [1] has as its target CDK18/Cyclin Y (Homo sapiens) (UniProt Q07002+Q8ND76). Briefly: Selectivity interaction (Kinase panel (Z-LYTE Assay)) EUB0001632a CDK18. Format: protein-complex assay. Particulars: at 10 µM.
Test [2] concerns the target T1, Cyclin-dependent kinase 11A (Homo sapiens) (UniProt Q9UQ88).
T1 sequence (whole entry): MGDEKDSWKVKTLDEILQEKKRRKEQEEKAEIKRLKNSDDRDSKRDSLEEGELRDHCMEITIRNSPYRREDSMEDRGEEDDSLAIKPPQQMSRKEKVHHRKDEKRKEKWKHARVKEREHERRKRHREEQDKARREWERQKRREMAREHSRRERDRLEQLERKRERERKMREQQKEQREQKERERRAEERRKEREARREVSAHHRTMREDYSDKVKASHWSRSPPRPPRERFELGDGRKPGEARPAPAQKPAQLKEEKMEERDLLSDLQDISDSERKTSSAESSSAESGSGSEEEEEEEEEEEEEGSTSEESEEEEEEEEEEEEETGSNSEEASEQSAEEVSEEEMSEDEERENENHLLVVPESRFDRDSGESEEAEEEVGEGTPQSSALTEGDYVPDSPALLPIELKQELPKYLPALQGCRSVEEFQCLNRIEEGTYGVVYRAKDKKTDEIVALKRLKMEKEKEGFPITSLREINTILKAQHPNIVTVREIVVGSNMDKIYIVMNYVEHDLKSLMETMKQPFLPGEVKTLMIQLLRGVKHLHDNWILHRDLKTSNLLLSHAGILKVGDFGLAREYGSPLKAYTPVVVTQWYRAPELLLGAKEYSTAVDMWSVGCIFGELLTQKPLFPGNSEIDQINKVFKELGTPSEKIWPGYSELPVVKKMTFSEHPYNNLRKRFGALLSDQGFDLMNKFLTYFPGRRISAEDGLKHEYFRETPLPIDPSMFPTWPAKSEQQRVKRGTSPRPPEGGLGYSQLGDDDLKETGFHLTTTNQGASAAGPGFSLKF
Briefly: Selectivity interaction (ActivX KiNativ screen (ex vivo kinase selectivity in human PBMCs)) EUB0001619a CDK11A. The test is classed as cell-based. Particulars: PBMC, at 1 µM.

In test [3] the target is Dual specificity mitogen-activated protein kinase kinase 2 (Homo sapiens) (UniProt P36507). Briefly: Selectivity interaction (KinomeScan (DiscoverX)) EUB0001619a MAP2K2. Particulars: at 1 µM.
Sequence of Dual specificity mitogen-activated protein kinase kinase 2 (Homo sapiens) (P36507 whole entry): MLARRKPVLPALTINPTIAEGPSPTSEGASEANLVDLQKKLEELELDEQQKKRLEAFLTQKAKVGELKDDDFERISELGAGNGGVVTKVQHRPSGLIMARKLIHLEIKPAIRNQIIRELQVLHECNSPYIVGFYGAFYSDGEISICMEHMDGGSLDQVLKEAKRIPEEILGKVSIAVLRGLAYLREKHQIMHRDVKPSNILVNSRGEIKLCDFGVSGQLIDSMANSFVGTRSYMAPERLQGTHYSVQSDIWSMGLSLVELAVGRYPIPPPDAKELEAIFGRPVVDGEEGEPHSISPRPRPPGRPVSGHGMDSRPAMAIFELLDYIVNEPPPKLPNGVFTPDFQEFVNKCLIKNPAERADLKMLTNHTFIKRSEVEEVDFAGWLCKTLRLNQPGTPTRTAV
The target of test [4] is T2, Serine/threonine-protein kinase NLK (Homo sapiens) (UniProt Q9UBE8).
T2 sequence (whole entry): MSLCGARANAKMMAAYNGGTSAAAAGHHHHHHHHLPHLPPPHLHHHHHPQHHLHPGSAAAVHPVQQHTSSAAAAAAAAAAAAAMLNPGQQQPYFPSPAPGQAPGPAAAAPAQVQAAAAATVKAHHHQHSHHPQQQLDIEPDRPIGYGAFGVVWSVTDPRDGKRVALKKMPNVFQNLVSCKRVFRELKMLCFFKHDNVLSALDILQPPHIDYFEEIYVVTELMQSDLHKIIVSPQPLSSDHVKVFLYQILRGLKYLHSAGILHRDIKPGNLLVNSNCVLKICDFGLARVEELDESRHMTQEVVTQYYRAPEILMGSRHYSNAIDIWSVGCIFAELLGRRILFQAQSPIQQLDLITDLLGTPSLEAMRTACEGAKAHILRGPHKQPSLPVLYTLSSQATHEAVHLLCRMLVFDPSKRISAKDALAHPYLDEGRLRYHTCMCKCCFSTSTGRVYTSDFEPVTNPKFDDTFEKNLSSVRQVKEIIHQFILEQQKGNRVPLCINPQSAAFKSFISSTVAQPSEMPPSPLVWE
Conditions: at 10 µM.

In test [5] the target is T3, MAP kinase-activated protein kinase 5 (Homo sapiens) (UniProt Q8IW41).
T3 sequence (whole entry): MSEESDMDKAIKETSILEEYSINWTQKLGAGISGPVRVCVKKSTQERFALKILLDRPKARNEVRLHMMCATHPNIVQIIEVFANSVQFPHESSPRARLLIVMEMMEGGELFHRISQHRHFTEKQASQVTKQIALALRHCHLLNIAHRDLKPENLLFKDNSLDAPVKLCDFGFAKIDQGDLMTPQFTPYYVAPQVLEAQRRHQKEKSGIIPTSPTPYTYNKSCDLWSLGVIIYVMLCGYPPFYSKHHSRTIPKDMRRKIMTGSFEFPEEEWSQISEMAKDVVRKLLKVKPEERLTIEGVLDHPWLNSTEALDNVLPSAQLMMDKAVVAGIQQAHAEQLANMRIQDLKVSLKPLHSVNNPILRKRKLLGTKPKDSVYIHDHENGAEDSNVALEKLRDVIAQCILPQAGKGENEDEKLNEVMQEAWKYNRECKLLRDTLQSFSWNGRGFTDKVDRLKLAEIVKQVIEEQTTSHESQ
Particulars: at 10 µM.

Test [6] has as its target SRSF protein kinase 3 (Homo sapiens) (UniProt Q9UPE1). Briefly: Selectivity interaction (KinomeScan (DiscoverX)) EUB0000695a SRPK3. Conditions: at 100 nM.
For test [7], the target named is Mitogen-activated protein kinase 8 (Homo sapiens, UniProt P45983). Briefly: Selectivity interaction (SelectScreen profiling (Invitrogen)) EUB0000607a MAPK8. Conditions: at 2 µM.
Sequence of Mitogen-activated protein kinase 8 (P45983 whole entry): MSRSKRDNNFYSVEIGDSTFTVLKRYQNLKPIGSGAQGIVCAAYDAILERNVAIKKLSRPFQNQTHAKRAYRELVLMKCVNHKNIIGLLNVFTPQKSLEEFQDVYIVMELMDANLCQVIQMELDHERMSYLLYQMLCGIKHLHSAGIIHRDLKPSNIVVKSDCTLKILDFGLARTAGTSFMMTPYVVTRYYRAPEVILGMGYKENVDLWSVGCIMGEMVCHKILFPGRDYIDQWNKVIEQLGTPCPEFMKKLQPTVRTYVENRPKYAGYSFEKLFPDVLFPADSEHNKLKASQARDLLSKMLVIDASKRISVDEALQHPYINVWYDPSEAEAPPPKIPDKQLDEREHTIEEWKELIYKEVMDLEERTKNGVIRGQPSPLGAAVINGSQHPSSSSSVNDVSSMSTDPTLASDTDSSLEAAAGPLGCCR
The target in test [8] is Serine/threonine-protein kinase 38 (Homo sapiens) (UniProt Q15208). Conditions: at 10 µM.
Sequence of Serine/threonine-protein kinase 38 (Homo sapiens) (Q15208 2-465 limits assumed): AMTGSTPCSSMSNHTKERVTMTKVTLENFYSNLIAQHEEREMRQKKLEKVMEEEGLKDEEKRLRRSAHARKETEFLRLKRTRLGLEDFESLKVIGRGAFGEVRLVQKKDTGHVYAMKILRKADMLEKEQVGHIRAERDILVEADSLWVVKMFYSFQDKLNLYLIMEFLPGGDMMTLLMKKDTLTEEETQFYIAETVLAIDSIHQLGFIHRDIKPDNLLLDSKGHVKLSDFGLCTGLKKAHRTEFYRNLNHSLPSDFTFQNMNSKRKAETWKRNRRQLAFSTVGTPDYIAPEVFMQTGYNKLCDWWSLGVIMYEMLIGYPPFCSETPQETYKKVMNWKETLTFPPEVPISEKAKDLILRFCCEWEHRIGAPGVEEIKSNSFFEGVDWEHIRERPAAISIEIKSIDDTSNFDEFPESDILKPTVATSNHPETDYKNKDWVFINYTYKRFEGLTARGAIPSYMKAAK
Test [9] addresses Cyclin-dependent kinase 10 (Homo sapiens) (UniProt Q15131). Briefly: Selectivity interaction (ActivX KiNativ screen (kinase selectivity in THP-1 cell lysates)) EUB0000639a CDK10. Conditions: lysate. The test is classed as subcellular.
Test [10] concerns the target Serine/threonine-protein kinase PLK1 (Homo sapiens, UniProt P53350). Briefly: Selectivity interaction (KinomeScan (DiscoverX)) EUB0000655a PLK1. Particulars: at 10 µM.
In test [11] the target is Tyrosine-protein kinase JAK2 (Homo sapiens, UniProt O60674). Briefly: Selectivity interaction (KinomeScan (DiscoverX)) EUB0000618a JAK2. Particulars: at 10 µM.
Sequence of Tyrosine-protein kinase JAK2 (O60674 whole entry): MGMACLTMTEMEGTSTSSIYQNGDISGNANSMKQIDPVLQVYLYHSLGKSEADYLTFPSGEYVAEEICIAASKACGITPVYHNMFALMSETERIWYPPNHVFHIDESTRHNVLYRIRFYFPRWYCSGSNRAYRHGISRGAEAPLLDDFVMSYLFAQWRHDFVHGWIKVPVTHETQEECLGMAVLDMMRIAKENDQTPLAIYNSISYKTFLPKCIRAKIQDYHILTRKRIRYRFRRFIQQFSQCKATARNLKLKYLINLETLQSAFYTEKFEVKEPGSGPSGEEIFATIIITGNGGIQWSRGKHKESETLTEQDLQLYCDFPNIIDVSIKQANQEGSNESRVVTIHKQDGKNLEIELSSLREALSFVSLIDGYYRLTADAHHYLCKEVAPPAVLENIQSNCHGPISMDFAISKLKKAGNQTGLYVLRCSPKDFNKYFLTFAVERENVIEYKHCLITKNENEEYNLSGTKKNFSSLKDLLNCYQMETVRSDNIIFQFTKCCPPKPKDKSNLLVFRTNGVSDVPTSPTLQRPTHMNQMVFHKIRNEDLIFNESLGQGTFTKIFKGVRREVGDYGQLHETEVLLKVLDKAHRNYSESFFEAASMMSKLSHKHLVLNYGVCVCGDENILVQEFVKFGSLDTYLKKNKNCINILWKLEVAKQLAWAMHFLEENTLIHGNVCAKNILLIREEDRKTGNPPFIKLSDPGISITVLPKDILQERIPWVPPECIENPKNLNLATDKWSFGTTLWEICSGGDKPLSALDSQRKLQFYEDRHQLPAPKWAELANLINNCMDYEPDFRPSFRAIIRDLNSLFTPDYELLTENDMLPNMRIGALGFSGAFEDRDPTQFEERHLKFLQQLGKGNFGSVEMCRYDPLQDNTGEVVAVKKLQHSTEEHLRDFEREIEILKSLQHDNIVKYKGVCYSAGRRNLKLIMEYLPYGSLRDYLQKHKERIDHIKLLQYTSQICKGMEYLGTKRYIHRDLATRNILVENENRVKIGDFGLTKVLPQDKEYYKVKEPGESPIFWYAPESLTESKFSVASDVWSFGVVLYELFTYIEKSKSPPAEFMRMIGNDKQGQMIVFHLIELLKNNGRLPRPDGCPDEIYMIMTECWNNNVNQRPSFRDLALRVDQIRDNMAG
For test [12], the target named is Interferon-induced, double-stranded RNA-activated protein kinase (Homo sapiens) (UniProt P19525). Briefly: Selectivity interaction (KinomeScan (DiscoverX)) EUB0000092b EIF2AK2. Conditions: at 10 µM.
Sequence of Interferon-induced, double-stranded RNA-activated protein kinase (Homo sapiens) (P19525 whole entry): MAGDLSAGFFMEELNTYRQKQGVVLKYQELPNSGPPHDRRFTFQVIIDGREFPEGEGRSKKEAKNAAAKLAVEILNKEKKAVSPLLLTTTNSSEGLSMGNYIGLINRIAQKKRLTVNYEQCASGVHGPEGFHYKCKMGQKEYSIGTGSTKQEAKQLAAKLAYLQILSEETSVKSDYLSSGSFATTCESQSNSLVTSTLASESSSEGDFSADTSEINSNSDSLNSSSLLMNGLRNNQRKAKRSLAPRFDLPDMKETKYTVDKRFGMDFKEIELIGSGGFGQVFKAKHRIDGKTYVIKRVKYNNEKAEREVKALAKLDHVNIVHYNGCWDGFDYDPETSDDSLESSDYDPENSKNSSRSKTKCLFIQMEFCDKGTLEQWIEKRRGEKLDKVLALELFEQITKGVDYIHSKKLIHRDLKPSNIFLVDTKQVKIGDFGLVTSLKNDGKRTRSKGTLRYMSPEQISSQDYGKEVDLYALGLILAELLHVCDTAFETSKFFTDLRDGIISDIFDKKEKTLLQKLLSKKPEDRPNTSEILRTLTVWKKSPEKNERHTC
Test [13] addresses Mitogen-activated protein kinase 1 (Homo sapiens, UniProt P28482). Briefly: Selectivity interaction (KinomeScan (DiscoverX)) EUB0001079a MAPK1. Particulars: at 1 µM.

Sequence of Cyclin-dependent kinase 10 (Homo sapiens) (Q15131 whole entry): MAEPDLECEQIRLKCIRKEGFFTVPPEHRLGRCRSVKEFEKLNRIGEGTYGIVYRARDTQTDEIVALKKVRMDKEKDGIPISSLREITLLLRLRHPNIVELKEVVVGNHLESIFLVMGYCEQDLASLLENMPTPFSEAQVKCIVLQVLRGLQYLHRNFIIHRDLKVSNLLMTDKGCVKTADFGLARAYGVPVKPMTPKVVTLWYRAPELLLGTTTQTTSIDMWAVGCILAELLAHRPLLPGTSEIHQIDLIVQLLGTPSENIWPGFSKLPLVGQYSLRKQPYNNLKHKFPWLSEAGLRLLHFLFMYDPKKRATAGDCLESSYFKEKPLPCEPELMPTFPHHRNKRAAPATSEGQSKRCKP
Sequence of Mitogen-activated protein kinase 1 (P28482 whole entry): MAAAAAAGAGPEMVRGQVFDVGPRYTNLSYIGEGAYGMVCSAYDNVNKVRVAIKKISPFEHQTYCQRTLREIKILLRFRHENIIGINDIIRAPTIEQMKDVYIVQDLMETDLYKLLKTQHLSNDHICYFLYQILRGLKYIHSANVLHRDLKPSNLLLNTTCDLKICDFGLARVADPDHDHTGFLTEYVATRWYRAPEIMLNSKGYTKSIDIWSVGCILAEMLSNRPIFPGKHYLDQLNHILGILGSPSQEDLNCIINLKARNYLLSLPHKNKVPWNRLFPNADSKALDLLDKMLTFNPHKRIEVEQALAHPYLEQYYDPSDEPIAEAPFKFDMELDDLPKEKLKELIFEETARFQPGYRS
Sequence of Serine/threonine-protein kinase PLK1 (P53350 whole entry): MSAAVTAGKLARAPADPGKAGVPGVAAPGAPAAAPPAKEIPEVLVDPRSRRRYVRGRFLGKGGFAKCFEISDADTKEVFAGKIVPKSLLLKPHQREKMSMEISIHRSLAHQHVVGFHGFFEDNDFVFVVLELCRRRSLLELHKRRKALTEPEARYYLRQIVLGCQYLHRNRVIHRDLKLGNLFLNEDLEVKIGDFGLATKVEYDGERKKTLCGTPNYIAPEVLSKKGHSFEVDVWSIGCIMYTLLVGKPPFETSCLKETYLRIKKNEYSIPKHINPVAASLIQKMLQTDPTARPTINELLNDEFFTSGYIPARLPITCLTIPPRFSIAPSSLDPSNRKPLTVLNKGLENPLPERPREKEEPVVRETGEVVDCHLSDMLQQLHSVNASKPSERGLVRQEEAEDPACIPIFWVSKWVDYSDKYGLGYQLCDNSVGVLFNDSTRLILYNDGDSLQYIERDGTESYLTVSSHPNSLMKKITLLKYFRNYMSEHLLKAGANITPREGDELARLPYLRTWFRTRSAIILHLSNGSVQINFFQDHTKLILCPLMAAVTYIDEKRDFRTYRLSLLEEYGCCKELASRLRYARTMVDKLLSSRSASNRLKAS
Sequence of SRSF protein kinase 3 (Homo sapiens) (Q9UPE1 whole entry): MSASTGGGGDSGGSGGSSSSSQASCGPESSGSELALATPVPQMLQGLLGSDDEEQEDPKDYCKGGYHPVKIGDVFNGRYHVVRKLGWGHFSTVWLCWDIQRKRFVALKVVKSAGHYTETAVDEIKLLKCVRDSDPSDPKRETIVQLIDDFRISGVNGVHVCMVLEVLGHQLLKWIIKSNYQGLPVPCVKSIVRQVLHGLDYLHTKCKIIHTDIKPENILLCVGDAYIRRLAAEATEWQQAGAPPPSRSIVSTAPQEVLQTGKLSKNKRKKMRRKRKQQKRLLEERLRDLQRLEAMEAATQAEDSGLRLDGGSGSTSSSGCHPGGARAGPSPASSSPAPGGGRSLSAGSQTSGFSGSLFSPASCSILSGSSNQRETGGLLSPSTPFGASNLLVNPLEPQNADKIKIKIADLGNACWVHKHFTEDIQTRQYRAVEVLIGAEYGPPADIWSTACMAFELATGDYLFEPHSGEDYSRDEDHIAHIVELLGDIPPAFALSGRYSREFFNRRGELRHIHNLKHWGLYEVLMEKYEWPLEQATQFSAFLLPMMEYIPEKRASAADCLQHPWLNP

`Cn1cc(-n2cnc3c(NCc4nc5cc(Cl)c(Cl)cc5[nH]4)nc(N4CCOCC4)nc32)cn1` returned a % of control in test [1] of 1.58%.
As to `N#Cc1cccc(-c2c[nH]c3ncnc(N4CCOCC4)c23)c1`, the % of inhibition in test [2] was found to be 11%. Also, in [3], the % of control was 19%.
Turning to `CCN(CC)CCCCNc1ncc2cc(-c3cc(OC)cc(OC)c3)c(NC(=O)NC(C)(C)C)nc2n1`, the % of control in [4] and in [5] was 100% each time.
As for `Cc1cc(F)c(C(=O)Nc2cccc(-c3nncn3C(C)C)n2)cc1-n1cnc(C2CC2)c1`, in test [6], the % of control amounted to 100%.
Regarding `CNC(=O)Nc1ccc(-c2nc(N3CC4CCC(C3)O4)c3cnn(C4CCC5(CC4)OCCO5)c3n2)cc1`, the % of inhibition in test [7] was 12%.
On to `Cc1cc([C@@H](C)Nc2ccccc2C(=O)O)c2nc(N3CCOCC3)cc(=O)n2c1` [AZD-6482], for which the % of control in [8] is 100%.
For `CC[C@@H]1[C@H](F)C(=O)N[C@@H]1COc1nccc2cc(C(N)=O)c(OC)cc12` [ZIMLOVISERTIB], the % of inhibition in test [9] (at 0.01 µM) is 0.5%; in [9] (at 0.04 µM), 6.6%; in [9] (at 0.2 µM), -14.2%; in test [9] (at 1 µM), 6.3%; in [9] (at 5 µM), 19.6%.
In turn, `CN(C)CCOc1ccc(-c2nc(-c3ccncc3)c(-c3ccc4c(c3)CC/C4=N\O)[nH]2)cc1` displayed a % of control in test [10] of 100%.
The compound `O[C@H]1CC[C@H](Nc2ncc3nc(Nc4c(F)cc(F)cc4F)n([C@H]4CCOC4)c3n2)CC1` yielded a % of control in test [11] of 97%.
As for `CCC(=O)N1CCN(c2ccc(-n3c(=O)ccc4cnc5ccc(-c6cnc7ccccc7c6)cc5c43)cc2C(F)(F)F)CC1`, the % of control in test [12] is 88%.
Turning to `Nc1cnc(N2CCc3cc(S(=O)(=O)Nc4c(F)cc(Cl)cc4F)cc(N4CCCC4=O)c32)nc1` [TP-020n], the % of control in test [13] is 100%.
